# Source: patent US20230357320A1, “HELICAL STAPLED PEPTIDES AND USES THEREOF” (FOG PHARMACEUTICALS, INC., priority 2020, published 2023)
# Like-named read-outs stand apart in the source and are kept apart here. Starred links: 1 amine or outer side, 2 acyl side, 3 side chain; linkers in the order of their positions; H or OH if unused. Positions of bridges follow the written chain, without caps; N, C: chain ends. Non-standard residues stand in square brackets, D forms with d. Residues, ends and D or L forms follow the SMILES beside them. *: point of attachment. PL3 = (R)-N-acetyl-2-(2'-propenyl)proline (alpha-allyl proline), stapling residue, C=CC[C@@]1(C(=O)*)CCCN1C(C)=O; X1 = O=C([C@]1(CC=[*:3])CCCN1[*:1])[*:2]; Ala(cPr) = N[C@@H](CC1CC1)C(=O)O; S5 = C=CCCC[C@](C)(N)C(=O)O
# Assays:
# [1] = in vitro; parameters: dose or concentration left out as unconfirmed; settings: PAMPA, pH 7.4, PAMPA Pe
# [2] = for % Retention: PAMPA
# [3] = CHI Log D measurement (chromatographic hydrophobicity index); settings: pH 7.4
# [4] = biological target: T1, ERβ LBD (Homo sapiens, UniProt Q92731); test: Competition fluorescence polarization (FP) binding assay with FITC-ERL4 probe; settings: read-out: EC50
# T1 construct: pET28a+ vector containing ERβ LBD (residues from 261 to 500) along with an N-terminal His6-yBBr-TEV tag; His6 (N); yBBr (N); TEV cleavage site (N); made in house; host or cells: E. coli BL21(DE3) pLysS
# Experimental: In addition to the PAMPA assay, to study the affinity of the first-generation ProLock™ stapled peptides to the Estrogen receptor p ligand-binding domain (ERβ LBD), a fluorescence polarization (FP) binding assay in competition format was used in the presence of the endogenous ERβ LBD ligand estradiol. Competition Fluorescence Polarization (FP) assay was performed on the peptides to determine their half-maximal effective concentration (EC50). To do this, FITC labeled ERL4 peptide (FITC-βAla-His-Pro-Leu-Leu-Nle-Arg-Leu-Leu-Leu-Ser-Pro-CONH2) was synthesized to be used as a fluorescence probe based on existing literature (Fuchs et al., Journal of the American Chemical Society 2013, 135 (11), 4364-4371). Direct FP was performed in black 384-well plates (Corning). The final volume of each assay well was 40 μL with constant concentration of FITC labeled ERL4 peptide (10 nM) and variable concentrations of ERβ LBD protein.
# ERβ LBD expression and purification was performed as follows. BL21(DE3) pLysS E. coli cells were transformed with a pET28a+ vector containing ERβ LBD (residues from 261 to 500) along with an N-terminal His6-yBBr-TEV tag. An overnight culture in 10 mL of TB media containing 50 μg/mL kanamycin was prepared from a single bacterial colony. The overnight culture was subsequently added to 1 liter of autoclaved TB media containing 50 μg/mL kanamycin and shaken at 37° C. until an OD of 0.6-0.8 was reached. IPTG was added to the culture and left shaking for 6 hours. Bacterial culture was pelleted and resuspended in lysis buffer. Resuspended bacterial culture was incubated at 0° C. for 10 minutes before sonication at 65% amplitude with 10-sec cycles using a Branson Sonifier. The lysate was then cleared by centrifugation at 8000×g for 20 min. […] The expected molecular weight of the ERβ LBD protein is 30.8 KDa, which molecular weight was confirmed by SDS PAGE analysis. Purified ERβ LBD was concentrated to 90 μM and was stored at −80° C. buffer.
# Competition FP assays were also employed. These were performed in black 384-well plates (Corning). The final volume of each assay well was 80 μL containing constant concentrations of estradiol (1 μM) and FITC labeled ERL4 (10 nM). The ERβ LBD concentration was held constant (200 nM) while varying the concentration of ProLock stapled peptides (3-fold dilution from 10 μM). Upon addition of samples to each well, the plate was centrifuged for 10 seconds at 3000 rpm and incubated at 4° C. for 1 hour. FP measurements were performed at room temperature with excitation and emission wavelengths at 485 and 535 nm using a Clariostar microplate reader (BMG Labtech). Each plate had high and low polarization samples, which are used to normalize the assay data. The competition FP results were analyzed by Prism 7 (GraphPad). The non-linear regression analysis of the data was used to determine the half-maximal effective concentration (EC50) of ProLock stapled peptides. […] The normalized FP values shown in FIG. 6 are mean±S.E.M of at least four independent replicates.
# [5] = biological target: T2, Estrogen receptor β ligand-binding domain (ERβ LBD), residues 261 to 500, with N-terminal His6-yBBr-TEV tag (UniProt Q92731 261-500); test: competition fluorescence polarization against FITC-ERL4 probe, 200 nM ERβ LBD, 1 µM estradiol
# T2 construct: range 261-500; Expressed in E. coli BL21(DE3) pLysS from pET28a+, purified by Ni-NTA and SEC; Assays were run in the presence of estradiol; also called ER LBD; not shown: N-terminal His6-yBBr-TEV tag
# T2 sequence (Q92731 261-500): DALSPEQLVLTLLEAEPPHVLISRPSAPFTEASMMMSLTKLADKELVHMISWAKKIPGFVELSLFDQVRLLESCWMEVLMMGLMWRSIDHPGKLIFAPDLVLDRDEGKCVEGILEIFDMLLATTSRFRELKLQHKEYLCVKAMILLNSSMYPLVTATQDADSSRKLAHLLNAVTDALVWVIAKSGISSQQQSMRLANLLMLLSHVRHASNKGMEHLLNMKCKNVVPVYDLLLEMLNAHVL
# [6] = Table 4, binding to ER LBD, estradiol 1 μM, FITC-ERL4 10 nM, ERβ LBD 200 nM, mean ± S.E.M, at least four replicates
# [7] = reverse-phase HPLC, Phenomenex Gemini C-18 column
# 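For % Retention in this document: Phospholipid-membrane PAMPA, donor and acceptor in DPBS pH 7.4 with 5% DMSO, 37 °C for 5 h, compound in each well quantified by reverse-phase HPLC-MS.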
# 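For PAMPA Pe (text) in this document: Phospholipid-membrane PAMPA, donor and acceptor in DPBS pH 7.4 with 5% DMSO, 37 °C for 5 h, compound in each well quantified by reverse-phase HPLC-MS.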
# 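For PAMPA Pe in this document: Phospholipid-membrane PAMPA, donor and acceptor in DPBS pH 7.4 with 5% DMSO, 37 °C for 5 h, compound in each well quantified by reverse-phase HPLC-MS.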
# 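For Papp in this document: Phospholipid-membrane PAMPA, donor and acceptor in DPBS pH 7.4 with 5% DMSO, 37 °C for 5 h, compound in each well quantified by reverse-phase HPLC-MS.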
molecule,measurement,setting,value
"CNC(=O)[C@H](Cc1c[nH]cn1)NC(=O)[C@H](CC(C)C)NC(=O)[C@H](CC(C)C)NC(=O)[C@H](Cc1ccc(O)cc1)NC(=O)[C@]1(C)CCCC=CC[C@]2(CCCN2C(C)=O)C(=O)N[C@@H](CC(C)C)C(=O)N[C@@H](CC(C)C)C(=O)N1 (single isomer, unassigned) [PLL5-11, Ac-PL3-Leu-Leu-S5-Tyr-Leu-Leu-His-NHMe]",Papp at 5 h,[1],≤ 0.1 ×10⁻⁶ cm/s
same,% Retention,[2],89 ± 1%
same,chromatographic logD,[3],3.2
same,EC50,[4]; [6],> 10000 nM
"CC[C@H](C)[C@@H]1NC(=O)[C@]2(CC=CCCC[C@@](C)(C(=O)N[C@@H](Cc3ccc(O)cc3)C(=O)N[C@@H](CC(C)C)C(=O)N[C@@H](CC(C)C)C(=O)N[C@@H](CC(=O)O)C(=O)NC)NC(=O)[C@H](CC(C)C)NC1=O)CCCN2C(C)=O [PLL5-4, Ac-PL3-Ile-Leu-S5-Tyr-Leu-Leu-Asp-NHMe] (Ac-[X1]IL[S5]YLLD-NHMe; staple 1-4)",Papp at 5 h,[1],0.3 ± 0.1 ×10⁻⁶ cm/s
same,% Retention,[2],100 ± 1%
same,chromatographic logD,[3]; [7],2.4
same,EC50,[4]; [6],1300 ± 100 nM
"CNC(=O)[C@H](CC(=O)O)NC(=O)[C@H](CCC(N)=O)NC(=O)[C@H](CC(C)C)NC(=O)[C@H](CC(C)C)NC(=O)[C@H](Cc1ccc(O)cc1)NC(=O)[C@]1(C)CCCC=CC[C@]2(CCCN2C(C)=O)C(=O)N[C@@H](CC2CC2)C(=O)N[C@@H](CC(C)C)C(=O)N1 [PLL7-7, Ac-PL3-Cpa-Leu-S5-Tyr-Leu-Leu-Gln-Asp-NHMe] (Ac-[X1][Ala(cPr)]L[S5]YLLQD-NHMe; staple 1-4)",Papp at 5 h,[1],1 ± 0.1 ×10⁻⁶ cm/s
same,PAMPA Pe,[2],1.0 ± 0.1 (×10^−6) cm/sec
same,PAMPA Pe (text),[2],exceeding 1 ×10^−6 cm/sec
same,% Retention,[2],108 ± 3%
same,chromatographic logD,[3]; [7],2
same,EC50,[4]; [6],900 ± 100 nM
same,EC50,[4]; binding towards the ERβ LBD,800 to 1300 nM
"CNC(=O)[C@H](Cc1ccc(O)cc1)NC(=O)[C@H](CCC(N)=O)NC(=O)[C@H](CC(C)C)NC(=O)[C@H](CC(C)C)NC(=O)[C@]1(C)CCCC=CC[C@]2(CCCN2C(C)=O)C(=O)N[C@@H](CC(C)C)C(=O)N[C@@H](Cc2c[nH]cn2)C(=O)N1 (single isomer, unassigned) [PLL4-7, Ac-PL3-Leu-His-S5-Leu-Leu-Gln-Tyr-NHMe]",Papp at 5 h,[1],0.3 ± 0.1 ×10⁻⁶ cm/s
same,PAMPA Pe (text),[2],0.3-0.7 ×10^−6 cm/sec
same,% Retention,[2],46 ± 3%
same,chromatographic logD,[3],2.5
same,EC50,"[4]; Table 2, binding to ER LBD, estradiol 1 μM, FITC-ERL4 10 nM, ERβ LBD 200 nM, mean ± S.E.M, at least four replicates",> 10000 nM
"CNC(=O)[C@@H](NC(=O)[C@H](CC(C)C)NC(=O)[C@H](CC(C)C)NC(=O)[C@H](CC1CC1)NC(=O)[C@]1(C)CCCC=CC[C@]2(CCCN2C(C)=O)C(=O)N[C@@H]([C@@H](C)O)C(=O)N[C@@H](CC(C)C)C(=O)N1)[C@@H](C)O [PLL7-23, Ac-PL3-Thr-Leu-S5-Cpa-Leu-Leu-Thr-NHMe] (Ac-[X1]TL[S5][Ala(cPr)]LLT-NHMe; staple 1-4)",Papp at 5 h,[1],< 0.1 ×10⁻⁶ cm/s
same,% Retention,[2],92 ± 2%
same,chromatographic logD,[3]; [7],3.2
same,EC50,[4]; [6],2400 ± 100 nM
"CNC(=O)[C@H](Cc1ccc(O)cc1)NC(=O)[C@H](CC(C)C)NC(=O)[C@H](CC(C)C)NC(=O)[C@H](Cc1c[nH]cn1)NC(=O)[C@H](CCCNC(=N)N)NC(=O)[C@]1(C)CCCC=CC[C@]2(CCCN2C(C)=O)C(=O)N[C@@H](CC(C)C)C(=O)N[C@@H](CC(C)C)C(=O)N1 [PLL4-2, Ac-PL3-Leu-Leu-S5-Arg-His-Leu-Leu-Tyr-NHMe] (Ac-[X1]LL[S5]RHLLY-NHMe; staple 1-4)",Papp at 5 h,[1],≤ 0.1 ×10⁻⁶ cm/s
same,% Retention,[2],43 ± 2%
same,chromatographic logD,[3]; [7],2.7
same,EC50,[4]; binding towards the ERβ LBD,400 nM
"CNC(=O)[C@H](CC(=O)O)NC(=O)[C@H](CC(C)C)NC(=O)[C@H](CC(C)C)NC(=O)[C@H](Cc1ccc(O)cc1)NC(=O)[C@]1(C)CCCC=CC[C@]2(CCCN2C(C)=O)C(=O)N[C@@H](CCCCN)C(=O)N[C@@H](CC(C)C)C(=O)N1 (single isomer, unassigned) [PLL5-6, Ac-PL3-Lys-Leu-S5-Tyr-Leu-Leu-Asp-NHMe]",Papp at 5 h,[1],1.5 ± 0.2 ×10⁻⁶ cm/s
same,% Retention,[2],105 ± 5%
same,chromatographic logD,[3],1.2
same,EC50,[4]; [6],> 10000 nM
"CNC(=O)[C@H](CC(=O)O)NC(=O)[C@H](CC(C)C)NC(=O)[C@H](CC(C)C)NC(=O)[C@H](Cc1ccc(O)cc1)NC(=O)[C@]1(C)CCCC=CC[C@]2(CCCN2C(C)=O)C(=O)N[C@@H](CC(C)C)C(=O)N[C@@H](CC(C)C)C(=O)N1 [PLL4-10, Ac-PL3-Leu-Leu-S5-Tyr-Leu-Leu-Asp-NHMe] (Ac-[X1]LL[S5]YLLD-NHMe; staple 1-4)",Papp at 5 h,[1],0.6 ± 0.1 ×10⁻⁶ cm/s
same,PAMPA Pe,[2],0.6 ± 0.1 (×10^−6) cm/sec
same,PAMPA Pe (text),[2],0.3-0.7 ×10^−6 cm/sec
same,% Retention,[2],63 ± 4%
same,chromatographic logD,[3]; [7],2.4
same,EC50,[4]; binding towards the ERβ LBD,1500 nM
"Ac-[PL3]TL[S5]YLLD-NHMe (staple 1-4; also: staple isomer 2, cis olefin, Second-generation ProLock stapled peptide; X marks non-standard residues) [PLL5-5 (Ac-PL3-Thr-Leu-S5-Tyr-Leu-Leu-Asp-NHMe)]",binding result,[5],no binding (tested: peptide titrated 3-fold from 10 µM)
"Ac-[PL3]KL[S5]YLLD-NHMe (staple 1-4; also: staple isomer 2, cis olefin, Second-generation ProLock stapled peptide; X marks non-standard residues) [PLL5-6 (Ac-PL3-Lys-Leu-S5-Tyr-Leu-Leu-Asp-NHMe)]",binding result,[5],no binding (tested: peptide titrated 3-fold from 10 µM)
"Ac-[PL3]LL[S5]YLLH-NHMe (staple 1-4; also: staple isomer 2, cis olefin, Second-generation ProLock stapled peptide; X marks non-standard residues) [PLL5-11 (Ac-PL3-Leu-Leu-S5-Tyr-Leu-Leu-His-NHMe)]",binding result,[5],no binding (tested: peptide titrated 3-fold from 10 µM)
"Ac-[PL3]TL[S5]YLLDD-NHMe (staple 1-4; also: staple isomer 2, cis olefin, Second-generation ProLock stapled peptide; X marks non-standard residues) [PLL7-1 (Ac-PL3-Thr-Leu-S5-Tyr-Leu-Leu-Asp-Asp-NHMe)]",binding result,[5],no binding (tested: peptide titrated 3-fold from 10 µM)
"Ac-[PL3]AL[S5]HLLN-NHMe (staple 1-4; also: staple isomer 2, cis olefin, Second-generation ProLock stapled peptide; X marks non-standard residues) [PLL7-20 (Ac-PL3-Ala-Leu-S5-His-Leu-Leu-Asn-NHMe)]",binding result,[5],no binding (tested: peptide titrated 3-fold from 10 µM)
"Ac-[PL3]AL[S5]YLLQD-NHMe (staple 1-4; also: staple isomer 2, cis olefin, Second-generation ProLock stapled peptide; X marks non-standard residues) [PLL7-8 (Ac-PL3-Ala-Leu-S5-Tyr-Leu-Leu-Gln-Asp-NHMe)]",binding result,[5],no binding (tested: peptide titrated 3-fold from 10 µM)
